Laboratory results as given in US7189858B2, “N-phenyl substituted carbamoyloxyalkyl-azolium derivatives” (Basilea Pharmaceutica AG, priority 1999, dated 2007).
Read-outs that look alike come from different tables or passages of the source.

Tests used:
[1] = rat
[2] = Solubility (Table 1); conditions: solvent a = distilled water
[3] = tested on: C. parapsilosis KULM219C; test: Rat systemic mycosis, C. parapsilosis KULM219C; assay type: in vivo; conditions: for ED50: Lodderomyces parapsilosis, KULM219C, 336 h, read-out: Rat systemic mycosis ED50 on day 14, C. parapsilosis KULM219C
[4] = tested on: FCZ^R - C. albicans UTHS93-2067; test: Rat systemic mycosis, FCZ^R C. albicans UTHS93-2067; assay type: in vivo; conditions: for ED50: Candida albicans, 336 h, read-out: Rat systemic mycosis ED50 on day 14, FCZ^R - C. albicans UTHS93-2067
Source text: (§1) Male Fisher rats, strain F344/DuCrj, were employed for experimental infection models such as systemic candidiasis, systemic aspergillosis and pulmonary aspergillosis model. Immunocompetent 4 weeks old rats were used for systemic candidiasis or systemic aspergillosis which occurred after infection with Candida albicans conidia of 5×10^6/rat or with Aspergillus fumigatus conidia of 6×10^5/rat via tail vein. Otherwise for pulmonary aspergillosis model, rats had been immunosuppressed with cortisone acetate treatments prior to infection with 2×10^5/rat intratrachially. Treatments were given twice on the first day and once daily on following 4 days both for systemic and pulmonary aspergillosis (Ib.i.+4q.d.), for systemic candidiasis rats were treated at 0, 4, 24, and 48 h after infection (Ib.i.d.+2q.d.). Effective dose 50% (ED50) values were determined on day 14 after infection.

[5] = tested on: C. albicans CY1002; test: Rat systemic mycosis, C. albicans CY1002; assay type: in vivo; conditions: for ED50: Candida albicans, CY1002, 336 h, read-out: Rat systemic mycosis ED50 on day 14, C. albicans CY1002
Source text: as §1

[6] = tested on: A. fumigatus CF1003; test: Rat systemic mycosis, A. fumigatus CF1003; assay type: in vivo; conditions: for ED50: Aspergillus fumigatus, CF1003, 336 h, read-out: Rat systemic mycosis ED50 on day 14, A. fumigatus CF1003
Source text: as §1

[7] = tested on: Aspergillus fumigatus; test: Rat systemic aspergillosis model; assay type: in vivo; conditions: day 14 after infection
Source text: as §1

[8] = assay type: in vitro ADME; conditions: human
[9] = tested on: C. tropicalis CY5042; test: Rat systemic mycosis, C. tropicalis CY5042; assay type: in vivo; conditions: for ED50: Candida tropicalis, CY5042, 336 h, read-out: Rat systemic mycosis ED50 on day 14, C. tropicalis CY5042
[10] = tested on: Candida albicans; test: Rat systemic candidiasis model (Fluconazole resistance); assay type: in vivo; conditions: day 14 after infection
Source text: as §1

[11] = tested on: C. albicans CY3003; test: Rat systemic mycosis, C. albicans CY3003; assay type: in vivo; conditions: for ED50: Candida albicans, CY3003, 336 h, read-out: Rat systemic mycosis ED50 on day 14, C. albicans CY3003
Source text: as §1

Compound: CC(=O)OCc1ccccc1N(C)C(=O)OC[n+]1cnn(C[C@](O)(c2cc(F)ccc2F)[C@@H](C)c2nc(-c3ccc(C#N)cc3)cs2)c1.[Cl-] [Example 5, [[N-methyl-N-2-(acetoxymethyl)phenyl]carbamoyloxy]methyl-1-[(2R,3R)-2-(2,5-difluorophenyl)-2-hydroxy-3-[4-(4-cyanophenyl)thiazol-2-yl]butyl]-1H-[1,2,4]triazol-4-ium chloride]
- Conversion (half-life) to (2R,3R)-3-[4-(4-cyanophenyl)thiazol-2-yl)]-2-(2,5-difluorophenyl)-1-(1H-1,2,4-triazol-1-yl)-butan-2-ol (u) in plasma [1]: <2 min in rat plasma

Compound: CC(C)NCc1ccccc1N(C)C(=O)OC(C)[n+]1cnn(C[C@](O)(c2cc(F)ccc2F)[C@@H](C)c2nc(-c3ccc(C#N)cc3)cs2)c1.Cl.[Cl-] (stereo partly drawn) [Example 6, 1-[[N-methyl-N-2-(isopropylaminomethyl)phenyl]carbamoyloxy]ethyl-1-[(2R,3R)-2-(2,5-difluorophenyl)-2-hydroxy-3-[4-(4-cyanophenyl)thiazol-2-yl]butyl]-1H-[1,2,4]triazol-4-ium chloride hydrochloride]
- Solubility [2]: >10 mg/mL

Compound: CNCC(=O)OCc1cccnc1N(C)C(=O)OC(C)[n+]1cnn(C[C@](O)(c2cc(F)ccc2F)[C@@H](C)c2nc(-c3ccc(C#N)cc3)cs2)c1.Cl.[Cl-] (stereo partly drawn) [Example 7, 1-[[N-methyl-N-3-[(methylamino)acetoxymethyl]pyridin-2-yl]carbamoyloxy)ethyl-1-[(2R,3R)-2-(2,5-difluorophenyl)-2-hydroxy-3-[4-(4-cyanophenyl)thiazol-2-yl]butyl]-1H-[1,2,4]triazol-4-ium chloride hydrochloride]
- Rat systemic mycosis ED50 on day 14, C. parapsilosis KULM219C ([3]; I.V.): 7.6 µmol/kg
- Rat systemic mycosis ED50 on day 14, C. parapsilosis KULM219C ([3]; PO.): 6.5 µmol/kg
- Rat systemic mycosis ED50 on day 14, FCZ^R - C. albicans UTHS93-2067 ([4]; I.V.): 2.8 µmol/kg
- Rat systemic mycosis ED50 on day 14, FCZ^R - C. albicans UTHS93-2067 ([4]; PO.): 7 µmol/kg
- Rat systemic mycosis ED50 on day 14, C. albicans CY1002 ([5]; I.V.): 4 µmol/kg
- Rat systemic mycosis ED50 on day 14, C. albicans CY1002 ([5]; PO.): 4 µmol/kg
- Rat systemic mycosis ED50 on day 14, A. fumigatus CF1003 ([6]; I.V.): 11 µmol/kg
- Rat systemic mycosis ED50 on day 14, A. fumigatus CF1003 ([6]; PO.): 9 µmol/kg
- ED50, Systemic aspergillosis ([7]; i.v.): 13.5 µmol/kg
- ED50, Systemic aspergillosis ([7]; p.o.): 8.8 µmol/kg
- Conversion (half-life) to (2R,3R)-3-[4-(4-cyanophenyl)thiazol-2-yl)]-2-(2,5-difluorophenyl)-1-(1H-1,2,4-triazol-1-yl)-butan-2-ol (u) in plasma [8]: <2 min in human plasma
- Rat systemic mycosis ED50 on day 14, C. tropicalis CY5042 ([9]; I.V.): 1 µmol/kg
- Rat systemic mycosis ED50 on day 14, C. tropicalis CY5042 ([9]; PO.): 1 µmol/kg
- ED50, Systemic Fluconazole resistance candidiasis ([10]; i.v.): 13.3 µmol/kg
- ED50, Systemic Fluconazole resistance candidiasis ([10]; p.o.): 14.1 µmol/kg
- Rat systemic mycosis ED50 on day 14, C. albicans CY3003 ([11]; I.V.): 1.6 µmol/kg
- Rat systemic mycosis ED50 on day 14, C. albicans CY3003 ([11]; PO.): 2.5 µmol/kg

Compound: CNCC(=O)OCc1cc(F)c(F)cc1N(C)C(=O)OC(C)[n+]1cnn(C[C@](O)(c2cc(F)ccc2F)[C@@H](C)c2nc(-c3ccc(C#N)cc3)cs2)c1.Cl.[Cl-] (stereo partly drawn) [Example 7.3., 1-[[N-methyl-N-2-(methylamino)acetoxymethyl-4,5-difluorophenyl]carbamoyloxy]ethyl-1-[(2R,3R)-2-(2,5-difluorophenyl)-2-hydroxy-3-[4-(4-cyanophenyl)thiazol-2-yl]butyl]-1H-[1,2,4]triazol-4-ium chloride hydrochloride]
- Conversion (half-life) to (2R,3R)-3-[4-(4-cyanophenyl)thiazol-2-yl)]-2-(2,5-difluorophenyl)-1-(1H-1,2,4-triazol-1-yl)-butan-2-ol (u) in plasma [8]: 6 min in human plasma

Compound: CNCC(=O)OCc1cc(F)ccc1N(C)C(=O)OC(C)[n+]1cnn(C[C@](O)(c2cc(F)ccc2F)[C@@H](C)c2nc(-c3ccc(C#N)cc3)cs2)c1.Cl.[I-] (stereo partly drawn) [Example 7.4., 1-[[N-methyl-N-2-(methylamino)acetoxymethyl-4-fluoro-phenyl]carbamoyloxy]ethyl-1-[(2R,3R)-2-(2,5-difluorophenyl)-2-hydroxy-3-[4-(4-cyanophenyl)thiazol-2-yl]butyl]-1H-[1,2,4]triazol-4-ium iodide hydrochloride]
- Conversion (half-life) to (2R,3R)-3-[4-(4-cyanophenyl)thiazol-2-yl)]-2-(2,5-difluorophenyl)-1-(1H-1,2,4-triazol-1-yl)-butan-2-ol (u) in plasma [8]: 2 min in human plasma

Compound: CNCC(=O)OCc1ccc(Cl)cc1N(C)C(=O)OC(C)[n+]1cnn(C[C@](O)(c2cc(F)ccc2F)[C@@H](C)c2nc(-c3ccc(C#N)cc3)cs2)c1.Cl.[I-] (stereo partly drawn) [Example 7.10., 1-[[N-methyl-N-2-(methylamino)acetoxymethyl-5-chloro-phenyl]carbamoyloxy]ethyl-1-[(2R,3R)-2-(2,5-difluorophenyl)-2-hydroxy-3-[4-(4-cyanophenyl)thiazol-2-yl]butyl]-1H-[1,2,4]triazol-4-ium iodide hydrochloride]
- Conversion (half-life) to (2R,3R)-3-[4-(4-cyanophenyl)thiazol-2-yl)]-2-(2,5-difluorophenyl)-1-(1H-1,2,4-triazol-1-yl)-butan-2-ol (u) in plasma [8]: 3 min in human plasma

Compound: CNCC(=O)OCc1c(F)cccc1N(C)C(=O)OC(C)[n+]1cnn(C[C@](O)(c2cc(F)ccc2F)[C@@H](C)c2nc(-c3ccc(C#N)cc3)cs2)c1.Cl.[Cl-] (stereo partly drawn) [Example 7.13., 1-[[N-methyl-N-2-(methylamino)acetoxymethyl-3-fluoro-phenyl]carbamoyloxy]ethyl-1-[(2R,3R)-2-(2,5-difluorophenyl)-2-hydroxy-3-[4-(4-cyanophenyl)thiazol-2-yl]butyl]-1H-[1,2,4]triazol-4-ium chloride hydrochloride]
- Conversion (half-life) to (2R,3R)-3-[4-(4-cyanophenyl)thiazol-2-yl)]-2-(2,5-difluorophenyl)-1-(1H-1,2,4-triazol-1-yl)-butan-2-ol (u) in plasma [8]: 2 min in human plasma

Compound: OC(Cn1cncn1)(Cn1cncn1)c1ccc(F)cc1F [Fluconazole, reference compound]
- ED50 ([3]; PO.): 17 µmol/kg
- ED50 ([4]; PO.): 8.1 µmol/kg
- ED50 ([5]; PO.): 1.9 µmol/kg
- ED50 ([6]; PO.): 94 µmol/kg
- ED50 ([9]; PO.): 2 µmol/kg
- ED50 ([10]; Candida albicans, po, 336 h, p.o.): 21.8 µmol/kg
- ED50 ([11]; PO.): 1 µmol/kg

Compound: CCC(C)n1ncn(-c2ccc(N3CCN(c4ccc(OCC5COC(Cn6cncn6)(c6ccc(Cl)cc6Cl)O5)cc4)CC3)cc2)c1=O (stereo not shown) [Itraconazole, 4-[4-[4-[4-[[2-(2,4-Dichlorophenyl)-2-(1H-1,2,4-triazol-1-ylmethyl)-1,3-dioxolan-4-yl]methoxy]phenyl]-1-piperazinyl]phenyl]-2,4-dihydro-2-(1-methylpropyl)-3H-[1,2,4]triazol-3-one, reference compound]
- ED50 ([3]; PO.): 20 µmol/kg
- ED50 ([4]; PO.): 4.2 µmol/kg
- ED50 ([5]; PO.): 4.7 µmol/kg
- ED50 ([6]; PO.): 8.9 µmol/kg
- ED50 ([7]; Aspergillus fumigatus, po, 336 h, p.o.): 4.9 µmol/kg
- ED50 ([9]; PO.): 2 µmol/kg
- ED50 ([11]; PO.): 2.3 µmol/kg
